Measurements published in ChEMBL document CHEMBL4765275, “Discovery of novel tertiary amide derivatives as NEDDylation pathway activators to inhibit the tumor progression in vitro and in vivo” (Eur J Med Chem, 2020).
Activity calls are given as the source filed them. No cut-off for these calls is given here.

Legend:
MGC-803 [1] = assay: Induction of apoptosis in human MGC-803 cells assessed as down regulation of c-IAP1 expression at 150 nmol/L measured after 24 hrs in presence of NEDDylation inhibitor MLN4924 by Western blot analysis; format: functional, cell-based
MGC-803 [2] = assay: Toxicity in human MGC-803 cells xenografted mouse assessed as change in body weight at 50 to 150 mg/kg, sc measured after 28 days; format: organism-based; conditions: in vivo, 672 h, dose 50-150 mg/kg, time 28 day
MGC-803 [3] = assay: Cell cycle arrest in human MGC-803 cells assessed as accumulation at S phase at 100 nmol/L measured after 48 hrs by propidium iodide staining based flow cytometry (reference value: 34.48%); format: functional
MGC-803 [4] = assay: Cell cycle arrest in human MGC-803 cells assessed as accumulation at G2 phase at 150 nmol/L measured after 48 hrs by propidium iodide staining based flow cytometry (reference value: 24.91%); format: functional
[5] = target: T1, NEDD8-activating enzyme E1 regulatory subunit (Homo sapiens) (UniProt Q13564); assay: Activation of NAE1-mediated neddylation in human MGC-803 cells assessed as increase in Nedd8-CUL1 adduct formation at 50 to 150 nmol/L measured after 24 hrs by Western blot analysis; format: cell-based; conditions: filed as activator, dose 50-150 nmol/L
T1 sequence (whole entry): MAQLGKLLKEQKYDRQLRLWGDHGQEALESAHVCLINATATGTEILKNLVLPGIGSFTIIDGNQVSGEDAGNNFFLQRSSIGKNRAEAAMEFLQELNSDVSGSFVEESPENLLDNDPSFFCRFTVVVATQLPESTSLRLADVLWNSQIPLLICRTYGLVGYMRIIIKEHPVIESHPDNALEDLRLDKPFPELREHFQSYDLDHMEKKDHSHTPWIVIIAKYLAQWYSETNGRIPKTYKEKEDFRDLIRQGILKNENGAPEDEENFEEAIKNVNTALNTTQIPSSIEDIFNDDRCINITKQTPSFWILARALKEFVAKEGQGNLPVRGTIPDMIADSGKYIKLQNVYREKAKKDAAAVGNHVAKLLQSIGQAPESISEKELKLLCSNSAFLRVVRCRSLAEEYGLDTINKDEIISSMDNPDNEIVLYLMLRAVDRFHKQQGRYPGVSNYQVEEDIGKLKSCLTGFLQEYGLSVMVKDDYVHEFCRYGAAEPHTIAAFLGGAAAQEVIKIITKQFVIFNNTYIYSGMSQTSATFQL

MGC-803 [6] = assay: Induction of apoptosis in human MGC-803 cells assessed as down regulation of Bcl-2 expression at 50 to 150 nmol/L measured after 48 hrs by Western blot analysis; format: functional, cell-based; conditions: dose 50-150 nmol/L
MGC-803 [7] = assay: Induction of apoptosis in human MGC-803 cells assessed as necrotic cells at 150 nmol/L measured after 48 hrs by Annexin V-FITC/propidium iodide staining based flow cytometry (reference value: 0.5%); format: functional
MGC-803 [8] = assay: Induction of apoptosis in human MGC-803 cells assessed as down regulation of c-IAP1 expression at 150 nmol/L measured after 24 hrs in presence of proteasome inhibitor […] by Western blot analysis; format: functional, cell-based
[9] = target: T1, NEDD8-activating enzyme E1 regulatory subunit (Homo sapiens); assay: Activation of NAE1-mediated neddylation in human MGC-803 cells assessed as increase in Nedd8-[…] adduct formation at 50 to 500 nmol/L measured after 30 mins in presence of ATP by Western blot analysis; format: cell-based; conditions: filed as activator, dose 50-500 nmol/L
MGC-803 [10] = assay: Induction of apoptosis in human MGC-803 cells assessed as upregulation of PIDD expression at 50 to 150 nmol/L measured after 48 hrs by Western blot analysis; format: functional, cell-based; conditions: dose 50-150 nmol/L
MGC-803 [11] = assay: Cell cycle arrest in human MGC-803 cells assessed as accumulation at G1 phase at 150 nmol/L measured after 48 hrs by propidium iodide staining based flow cytometry (reference value: 40.61%); format: functional
MGC-803 [12] = assay: Induction of apoptosis in human MGC-803 cells assessed as late apoptotic cells at 50 nmol/L measured after 48 hrs by Annexin V-FITC/propidium iodide staining based flow cytometry (reference value: 5.6%); format: functional
MGC-803 [13] = assay: Induction of apoptosis in human MGC-803 cells assessed as late apoptotic cells at 75 nmol/L measured after 48 hrs by Annexin V-FITC/propidium iodide staining based flow cytometry (reference value: 5.6%); format: functional
MGC-803 [14] = assay: Antitumor activity against human MGC-803 cells xenografted in mouse assessed as reduction in tumor weight at 50 mg/kg, sc measured after 28 days relative to control; format: functional; design: scale not given: the % may be the effect or the level left; conditions: time 28 day
MGC-803 [15] = assay: Antitumor activity against human MGC-803 cells xenografted in mouse assessed as reduction in tumor weight at 150 mg/kg, sc measured after 28 days relative to control; format: functional; design: scale not given: the % may be the effect or the level left; conditions: time 28 day
MGC-803 [16] = assay: Induction of apoptosis in human MGC-803 cells assessed as early apoptotic cells at 100 nmol/L measured after 48 hrs by Annexin V-FITC/propidium iodide staining based flow cytometry (reference value: 2.2%); format: functional
MGC-803 [17] = assay: Induction of apoptosis in human MGC-803 cells assessed as early apoptotic cells at 50 nmol/L measured after 48 hrs by Annexin V-FITC/propidium iodide staining based flow cytometry (reference value: 2.2%); format: functional
MGC-803 [18] = assay: Cell cycle arrest in human MGC-803 cells assessed as accumulation at G1 phase at 100 nmol/L measured after 48 hrs by propidium iodide staining based flow cytometry (reference value: 40.61%); format: functional
MGC-803 [19] = assay: Induction of apoptosis in human MGC-803 cells assessed as increase in activated caspase-2 expression at 50 to 150 nmol/L measured after 48 hrs by Western blot analysis; format: functional, cell-based; conditions: dose 50-150 nmol/L
MGC-803 [20] = assay: Induction of apoptosis in human MGC-803 cells assessed as early apoptotic cells at 75 nmol/L measured after 48 hrs by Annexin V-FITC/propidium iodide staining based flow cytometry (reference value: 2.2%); format: functional
MGC-803 [21] = assay: Induction of morphological changes in human MGC-803 cells assessed as cell rounding at 50 to 150 nmol/L measured after 48 hrs by bright field microscopic analysis; format: functional, cell-based; conditions: dose 50-150 nmol/L
MGC-803 [22] = assay: Induction of morphological changes in human MGC-803 cells assessed as nuclear fragmentation at 50 to 150 nmol/L measured after 48 hrs by DAPI staining based assay; format: functional, cell-based; conditions: dose 50-150 nmol/L
[23] = target: T1, NEDD8-activating enzyme E1 regulatory subunit (Homo sapiens); assay: Activation of NAE1-mediated neddylation in human MGC-803 cells assessed as increase in Nedd8 neddylation at 50 to 150 nmol/L measured after 24 hrs by Western blot analysis; format: cell-based; conditions: filed as activator, dose 50-150 nmol/L
MGC-803 [24] = assay: Cell cycle arrest in human MGC-803 cells assessed as accumulation at G1 phase at 50 nmol/L measured after 48 hrs by propidium iodide staining based flow cytometry (reference value: 40.61%); format: functional
MGC-803 [25] = assay: Induction of apoptosis in human MGC-803 cells assessed as necrotic cells at 75 nmol/L measured after 48 hrs by Annexin V-FITC/propidium iodide staining based flow cytometry (reference value: 0.5%); format: functional
MGC-803 [26] = assay: Induction of apoptosis in human MGC-803 cells assessed as down regulation of XIAP expression at 50 to 150 nmol/L measured after 48 hrs by Western blot analysis; format: functional, cell-based; conditions: dose 50-150 nmol/L
MGC-803 [27] = assay: Antitumor activity against human MGC-803 cells xenografted in mouse assessed as reduction in tumor weight at 100 mg/kg, sc measured after 28 days relative to control; format: functional; design: scale not given: the % may be the effect or the level left; conditions: time 28 day

Question: With `COc1ccc(CN(C(=O)Cc2cccs2)c2cc(OC)c(OC)c(OC)c2)cc1` as the compound, how does the Activity (MGC-803 [1]) read?
Answer: inactive

Question: And the Activity (MGC-803 [2])?
Answer: Non-Toxic

Question: What about the Activity (MGC-803 [3]) of the same compound?
Answer: 21.52%

Question: What about the Activity (MGC-803 [4]) of the same compound?
Answer: 52.97%

Question: And the Activity [5]?
Answer: Active

Question: What about the Activity (MGC-803 [6]) of the same compound?
Answer: Active

Question: And the Activity (MGC-803 [7])?
Answer: 3.8%

Question: What about the Activity (MGC-803 [8]) of the same compound?
Answer: inactive

Question: And the Activity [9]?
Answer: Active

Question: What about the Activity (MGC-803 [10]) of the same compound?
Answer: Active

Question: And the Activity (MGC-803 [11])?
Answer: 13.31%

Question: And the Activity (MGC-803 [12])?
Answer: 6.5%

Question: What about the Activity (MGC-803 [13]) of the same compound?
Answer: 11%

Question: What about the Activity (MGC-803 [14]) of the same compound?
Answer: 36%

Question: What about the Activity (MGC-803 [15]) of the same compound?
Answer: 46%

Question: And the Activity (MGC-803 [16])?
Answer: 42.4%

Question: What about the Activity (MGC-803 [17]) of the same compound?
Answer: 5.2%

Question: And the Activity (MGC-803 [18])?
Answer: 37.76%

Question: What about the Activity (MGC-803 [19]) of the same compound?
Answer: Active

Question: What about the Activity (MGC-803 [20]) of the same compound?
Answer: 12.6%

Question: And the Activity (MGC-803 [21])?
Answer: Active

Question: What about the Activity (MGC-803 [22]) of the same compound?
Answer: Active

Question: What about the Activity [23] of the same compound?
Answer: Active

Question: And the Activity (MGC-803 [24])?
Answer: 37.2%

Question: What about the Activity (MGC-803 [25]) of the same compound?
Answer: 2%

Question: What about the Activity (MGC-803 [26]) of the same compound?
Answer: Active

Question: What about the Activity (MGC-803 [27]) of the same compound?
Answer: 42%
